{"source": "patent US9029097B2", "about": "“Biosensors for monitoring receptor-mediated G-protein activation” (Universite de Montreal, priority 2005, dated 2015)", "key": {"[1]": {"target": "T1, β2-adrenergic receptor (β2AR) (Homo sapiens, UniProt P07550)", "T1 construct": "expressed in transfected cells; host or cells: HEK293T (transient, calcium phosphate)", "test": "BRET in membrane preparations from HEK293T cells co-expressing β2AR-Rluc and GFP10-Gβ1 or GFP10-Gγ2", "type": "biochemical", "conditions": "membranes", "method": "Treatments: Iso, 10 μM; Feno, 10 μM; ICI, 100 μM; GTPγS, 200 μM. […] Rluc-tagged receptors and G protein constructs were transiently co-transfected in HEK293T cells. […] Forty-eight hours post-transfection, cells were washed twice with PBS, detached with PBS-5 mM EDTA and resuspended in PBS-0.1% glucose at RT. […] DeepBlueCTM coelenterazine (PerkinElmer) was added at a final concentration of 5 μM, and readings (except for the kinetic studies; see below) were collected using a modified top-count apparatus (TopCount.NXTM, Packard Bioscience) that allows the sequential integration of the signals detected in the 370-450 nm and 500-530 nm windows using filters with the appropriate band pass (Chroma). […] The net BRET values were obtained by subtracting the BRET background signal detected when the Rluc-tagged construct was expressed alone from BRET signals detected in cells coexpressing both Rluc- and GFP10-tagged constructs. […] The expression level of each protein was determined by direct measurement of total fluorescence and luminescence on aliquots of the transfected cells. […] To avoid variations in the BRET signal that could result from fluctuations in the relative expression levels of the energy donor and acceptor, transfection conditions were designed so as to maintain a constant GFP10/Rluc expression ratio in each experimental set."}, "[2]": {"target": "T2, human α2A-adrenergic receptor (α2AAR) (Homo sapiens, UniProt P08913)", "T2 construct": "expressed in transfected cells; host or cells: HEK293T (transient)", "T2 sequence (P08913 1-465)": "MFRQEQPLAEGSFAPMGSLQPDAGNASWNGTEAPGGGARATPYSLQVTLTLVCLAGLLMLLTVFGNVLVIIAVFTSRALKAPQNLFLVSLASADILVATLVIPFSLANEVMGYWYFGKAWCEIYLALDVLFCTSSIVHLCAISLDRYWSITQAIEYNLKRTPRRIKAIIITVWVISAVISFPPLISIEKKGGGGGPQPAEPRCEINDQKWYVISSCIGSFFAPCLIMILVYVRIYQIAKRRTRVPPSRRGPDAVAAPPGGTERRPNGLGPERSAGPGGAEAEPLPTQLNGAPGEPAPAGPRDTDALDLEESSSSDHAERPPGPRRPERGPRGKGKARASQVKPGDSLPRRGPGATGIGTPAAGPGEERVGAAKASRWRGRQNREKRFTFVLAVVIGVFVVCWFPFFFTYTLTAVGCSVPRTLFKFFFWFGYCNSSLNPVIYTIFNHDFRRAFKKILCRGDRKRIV", "test": "BRET between α2AAR and tagged G protein subunits (Gβ1, Gγ2, Gαi1-91Rluc, Gαi1-122Rluc) in living HEK293T cells", "type": "cell-based", "conditions": "for effect of pre-treatment on agonist-promoted changes in BRET between α2AAR and G protein subunits: pertussis toxin 16 h at 37° C., UK14,304, FIG. 21", "method": "(§1) Rluc-tagged receptors and G protein constructs were transiently co-transfected in HEK293T cells. […] For the experiment using α2AAR-Rluc (FIG. 4f), the G protein heterotrimer was complimented with the most specific Gαi2. Forty-eight hours post-transfection, cells were washed twice with PBS, detached with PBS-5 mM EDTA and resuspended in PBS-0.1% glucose at RT. Cells (50 μg of proteins per well) were then distributed in a 96-well microplate (white Optiplate, PerkinElmer) and incubated in the presence or absence of different ligands for 1 min except in the case of the kinetic studies where the times are indicated. DeepBlueC™ coelenterazine (PerkinElmer) was added at a final concentration of 5 μM, and readings (except for the kinetic studies; see below) were collected using a modified top-count apparatus (TopCount.NX™, Packard Bioscience) that allows the sequential integration of the signals detected in the 370-450 nm and 500-530 nm windows using filters with the appropriate band pass (Chroma). The BRET signal was determined by calculating the ratio of the light emitted by GFP10 (500-530 nm) over the light emitted by the Rluc (370-450 nm). The net BRET values were obtained by subtracting the BRET background signal detected when the Rluc-tagged construct was expressed alone from BRET signals detected in cells coexpressing both Rluc- and GFP10-tagged constructs. […] The expression level of each protein was determined by direct measurement of total fluorescence and luminescence on aliquots of the transfected cells. The GFP10 total fluorescence was measured using a FluoroCount (PerkinElmer) with an excitation filter at 400 nm, an emission at 510 nm, and the following parameters: gain 1; PMT 1100 V; time 1.0 s. After fluorescence measurement, the same cells were incubated for 8 min with Coelenterazine h (Molecular Probes) at a final concentration of 5 μM and the total luminescence of cells was measured using a LumiCount (PerkinElmer Life Sciences) with the following parameters: gain 1; PMT 900 V; time 0.5 s. […] To avoid variations in the BRET signal that could result from fluctuations in the relative expression levels of the energy donor and acceptor, transfection conditions were designed so as to maintain a constant GFP10/Rluc expression ratio in each experimental set.\nFor kinetic analysis of receptor/Gαβγ interactions, DeepBlueC™ or Coelenterazine h luciferase substrate was added prior to the injection of the different ligands using the Mithras LB 940 apparatus (Berthold) and MicroWin2000 software. Readings were then collected at 0.05 or 0.1 sec intervals. Injection of the different ligands was included with in the kinetic program to allow a baseline recording followed by real-time recording of the BRET changes. The BRET signals were determined for each time by calculating the ratio of the light emitted by GFP over that emitted by the Rluc. To determine the half-time (t½) of Iso-induced BRET, data were represented as the difference between the Iso-induced BRET signals and the average of basal BRET signal (net agonist-promoted BRET signal). Curves were fitted using a non-linear regression and one phase exponential association fit equation (GraphPad Prism).\nFor agonist stimulations longer than 1 minute, cells were first treated with the ligand (agonist, antagonist, inverse agonist) and DeepBlueC™ coelenterazine added immediately before BRET readings in the modified TopCount.NXT™ apparatus. For these experiments, readings were taken directly in 96 well plates 72 hours post-transfection without detaching the cells."}, "α2AAR": {"target": "T3, α2AAR (Homo sapiens, UniProt P08913)", "T3 construct": "expressed in transfected cells; host or cells: HEK293T", "T3 sequence (P08913 1-465)": "T2 sequence (P08913 1-465)", "test": "BRET between Gαi1-Rluc and GFP10-Gγ2 in the presence of α2AAR (Gα/Gβγ interaction)", "type": "cell-based", "method": "as §1"}, "[3]": {"target": "T1, β2-adrenergic receptor (β2AR)", "test": "BRET2 receptor/G protein interaction assay: β2AR-Rluc (or β2AR-GFP10) with tagged G protein subunits in living HEK293T cells", "type": "cell-based", "method": "Rluc-tagged receptors and G protein constructs were transiently co-transfected in HEK293T cells. […] For the experiment using α2AAR-Rluc (FIG. 4f), the G protein heterotrimer was complimented with the most specific Gαi2. Forty-eight hours post-transfection, cells were washed twice with PBS, detached with PBS-5 mM EDTA and resuspended in PBS-0.1% glucose at RT. Cells (50 μg of proteins per well) were then distributed in a 96-well microplate (white Optiplate, PerkinElmer) and incubated in the presence or absence of different ligands for 1 min except in the case of the kinetic studies where the times are indicated. DeepBlueC™ coelenterazine (PerkinElmer) was added at a final concentration of 5 μM, and readings (except for the kinetic studies; see below) were collected using a modified top-count apparatus (TopCount.NX™, Packard Bioscience) that allows the sequential integration of the signals detected in the 370-450 nm and 500-530 nm windows using filters with the appropriate band pass (Chroma). The BRET signal was determined by calculating the ratio of the light emitted by GFP10 (500-530 nm) over the light emitted by the Rluc (370-450 nm). The net BRET values were obtained by subtracting the BRET background signal detected when the Rluc-tagged construct was expressed alone from BRET signals detected in cells coexpressing both Rluc- and GFP10-tagged constructs. […]"}, "[4]": {"conditions": "untagged α2AAR, ligands 10 μM, FIG. 27A, 27C"}}, "note": "“Also recorded” adds a separate entry of the source. Like-named read-outs stand apart in the source and are kept apart here.", "data": [{"molecule": "Nc1nc2c(ncn2[C@@H]2O[C@H](COP(=O)(O)OP(=O)(O)OP(=O)(O)O)[C@@H](O)[C@H]2O)c(=O)[nH]1", "note": "[GTP, Guanosine triphosphate]", "values": [{"measurement": "effect of GTP on basal and agonist-stimulated BRET, β2AR-Rluc / GFP-Gβ1 or GFP-Gγ2", "setting": "[1]; high GTP concentrations, 90 min at 25° C., Iso 10 μM, FIG. 9", "result": "GTP sensitive"}]}, {"molecule": "Nc1nc2c(ncn2[C@@H]2O[C@H](COP(=O)(O)OP(=O)(O)OP(O)(O)=S)[C@@H](O)[C@H]2O)c(=O)[nH]1", "note": "[GTPγS]", "values": [{"measurement": "effect on agonist-promoted BRET signal, β2AR-Rluc / GFP10-Gβ1 or GFP10-Gγ2", "setting": "[1]; GTPγS 200 μM, 90 min at 25° C. pretreatment, Iso 10 μM", "result": "attenuated the agonist-promoted signal"}, {"measurement": "effect on basal BRET in the absence of agonist, β2AR-Rluc / GFP10-Gβ1 or GFP10-Gγ2", "setting": "[1]; GTPγS 200 μM, 90 min at 25° C. pretreatment", "result": "reduced the basal BRET"}]}, {"molecule": "COC1(C2=NCCN2)COc2ccccc2O1", "note": "(stereo not shown) [RX821002]", "values": [{"measurement": "effect of pretreatment on UK14,304-promoted BRET increase, α2AAR / G protein pairs", "setting": "[2]; FIG. 25", "result": "completely blocked the UK14,304-promoted BRET increase"}, {"measurement": "effect of preincubation on agonist-stimulated BRET response, Gαi1-Rluc / α2AAR-GFP10", "setting": "[2]; agonist UK14304, FIG. 3E", "result": "completely blocked the agonist-stimulated response"}, {"measurement": "modulation of BRET, Gαi1-Rluc / α2AAR-GFP10", "setting": "[2]; ligands 10 μM, FIG. 3E", "result": "unable to modulate the BRET signal"}, {"measurement": "change in BRET2, Gαi1-91Rluc / α2AAR-GFP2", "setting": "[2]; ligands 10 μM, FIG. 20, 25", "result": "little or no effect"}, {"measurement": "change in BRET2, Gαi1-122Rluc / α2AAR-GFP2", "setting": "[2]; ligands 10 μM, FIG. 20, 25", "result": "promoted a decrease in the BRET"}, {"measurement": "change in BRET2, α2AAR-Rluc / GFP10-Gβ1", "setting": "[2]; ligands 10 μM, FIG. 20, 25", "result": "little or no effect"}, {"measurement": "change in BRET2, α2AAR-Rluc / GFP10-Gγ2", "setting": "[2]; ligands 10 μM, FIG. 20, 25", "result": "little or no effect"}, {"measurement": "change in BRET, Gαi1-91Rluc / GFP10-Gγ2", "setting": "α2AAR; [4]", "result": "no effect on the BRET signal"}, {"measurement": "change in BRET, Gαi1-122Rluc / GFP10-Gγ2", "setting": "α2AAR; [4]", "result": "significant decrease in the BRET signal"}]}, {"molecule": "Brc1c(NC2=NCCN2)ccc2nccnc12", "note": "[UK14,304]", "values": [{"measurement": "change in BRET1, Gαi1-91Rluc / α2AAR-Venus, measured concomitantly with BRET2 in the same cells", "setting": "[2]", "result": "increase in the BRET"}, {"measurement": "change in BRET2, Gαi1-91Rluc / α2AAR-GFP2", "setting": "[2]", "result": "significantly increased the BRET"}, {"measurement": "change in BRET2, α2AAR-Rluc / GFP10-Gβ1", "setting": "[2]", "result": "significantly increased the BRET"}, {"measurement": "change in BRET2, α2AAR-Rluc / GFP10-Gγ2", "setting": "[2]", "result": "significantly increased the BRET"}, {"measurement": "loss (decrease) of BRET signal, α2AAR-Rluc / GFP10-Gγ2", "setting": "[2]", "result": 24, "unit": "%"}, {"measurement": "real-time BRET1 change, Gαi1-91Rluc / α2AAR-Venus", "setting": "[2]", "result": "rapid increases in the BRET"}, {"measurement": "real-time BRET1 change, Rluc-Gγ2 / α2AAR-Venus", "setting": "[2]", "result": "rapid increases in the BRET"}, {"measurement": "real-time BRET1 change, α2AAR-Venus / Gαi1-122Rluc", "setting": "[2]", "result": "rapid decrease in BRET^1"}, {"measurement": "time BRET levels reached following agonist stimulation remained constant, α2AAR-Venus pairs", "setting": "[2]", "result": "at least 12 seconds"}, {"measurement": "change in BRET2, Gαi1-91Rluc / GFP10-Gγ2, measured concomitantly with BRET1 in the same cells", "setting": "α2AAR", "result": "decrease in BRET^2"}, {"measurement": "change in BRET, Gαi1-91Rluc / GFP10-Gγ2", "setting": "α2AAR", "result": "promoted a reduction of BRET; also recorded: decreased the BRET"}, {"measurement": "change in BRET, Gαi1-122Rluc / GFP10-Gγ2", "setting": "α2AAR", "result": "promoted a reduction of BRET; also recorded: decreased the BRET"}]}, {"molecule": "Clc1cccc(Cl)c1N=C1NCCN1", "note": "[clonidine, Clonidine]", "values": [{"measurement": "change in BRET2, Gαi1-91Rluc / α2AAR-GFP2", "setting": "[2]", "result": "partial increase in BRET"}, {"measurement": "change in BRET2, α2AAR-Rluc / GFP10-Gβ1", "setting": "[2]", "result": "partial increase in BRET"}, {"measurement": "change in BRET2, α2AAR-Rluc / GFP10-Gγ2", "setting": "[2]", "result": "partial increase in BRET"}, {"measurement": "modulation of BRET, Gαi1-Rluc / α2AAR-GFP10", "setting": "[2]", "result": "induced only a fraction of the full agonist modulation UK14304"}, {"measurement": "change in BRET, Gαi1-91Rluc / GFP10-Gγ2", "setting": "α2AAR", "result": "decreased the BRET"}, {"measurement": "change in BRET, Gαi1-122Rluc / GFP10-Gγ2", "setting": "α2AAR", "result": "decreased the BRET"}]}, {"molecule": "Cc1cccc([C@H](C)c2cnc[nH]2)c1C", "note": "[dexmedetomidine, Dexmedetomidine]", "values": [{"measurement": "change in BRET2, Gαi1-91Rluc / α2AAR-GFP2", "setting": "[2]", "result": "partial increase in BRET"}, {"measurement": "change in BRET2, Gαi1-122Rluc / α2AAR-GFP2", "setting": "[2]", "result": "larger responses"}, {"measurement": "change in BRET2, α2AAR-Rluc / GFP10-Gβ1", "setting": "[2]", "result": "partial increase in BRET"}, {"measurement": "change in BRET2, α2AAR-Rluc / GFP10-Gγ2", "setting": "[2]", "result": "partial increase in BRET"}, {"measurement": "modulation of BRET, Gαi1-Rluc / α2AAR-GFP10", "setting": "[2]", "result": "induced only a fraction of the full agonist modulation UK14304"}, {"measurement": "change in BRET, Gαi1-91Rluc / GFP10-Gγ2", "setting": "α2AAR; [4]", "result": "decreased the BRET"}, {"measurement": "change in BRET, Gαi1-122Rluc / GFP10-Gγ2", "setting": "α2AAR; [4]", "result": "decreased the BRET"}]}, {"molecule": "CC(Cc1ccc(O)cc1)NCC(O)c1cc(O)cc(O)c1", "note": "(stereo not shown) [fenoterol]", "values": [{"measurement": "ligand-promoted BRET response, β2AR-Rluc / GFP10-Gβ1 or GFP10-Gγ2, compared with isoproterenol", "setting": "[3]; Feno 10 μM, Iso 10 μM, FIG. 3C", "result": "promoted only a fraction of the response evoked by the full agonist isoproterenol"}]}, {"molecule": "COC(=O)[C@@H]1[C@H]2C[C@H]3c4[nH]c5ccccc5c4CCN3C[C@@H]2CC[C@@H]1O", "note": "[yohimbine, Yohimbine]", "values": [{"measurement": "change in BRET2, Gαi1-91Rluc / α2AAR-GFP2", "setting": "[2]", "result": "little or no effect"}, {"measurement": "change in BRET2, Gαi1-122Rluc / α2AAR-GFP2", "setting": "[2]", "result": "promoted a decrease in the BRET"}, {"measurement": "change in BRET2, α2AAR-Rluc / GFP10-Gβ1", "setting": "[2]", "result": "little or no effect"}, {"measurement": "change in BRET2, α2AAR-Rluc / GFP10-Gγ2", "setting": "[2]", "result": "little or no effect"}, {"measurement": "modulation of BRET, Gαi1-Rluc / α2AAR-GFP10", "setting": "[2]", "result": "unable to modulate the BRET signal"}, {"measurement": "change in BRET, Gαi1-91Rluc / GFP10-Gγ2", "setting": "α2AAR; [4]", "result": "no effect on the BRET signal"}, {"measurement": "change in BRET, Gαi1-122Rluc / GFP10-Gγ2", "setting": "α2AAR; [4]", "result": "significant decrease in the BRET signal"}]}, {"molecule": "AVP: Vasopressin-selective agonist (V2R)", "values": [{"measurement": "modulation of BRET signal, β2AR-Rluc / GFP-Gγ2 or GFP-Gβ1, in cells also expressing Myc-V2R", "setting": "[3]; 10 μM AVP, specificity control, FIG. 7", "result": "unable to modulate BRET signal"}]}, {"molecule": "pertussis toxin", "values": [{"measurement": "effect of pre-treatment on agonist-promoted changes in BRET between α2AAR and G protein subunits", "setting": "[2]", "result": "blocked"}, {"measurement": "effect of pre-treatment on agonist-promoted changes in BRET between α2AAR and G protein subunits", "setting": "[2]; listed as PTX", "result": "greatly blunted agonist-promoted BRET changes"}, {"measurement": "effect of treatment on UK14,304-promoted BRET changes, Gαi1-91Rluc or Gαi1-122Rluc / GFP10-Gγ2", "setting": "α2AAR; pertussis toxin 16 h at 37° C., FIG. 21", "result": "abolished"}]}]}
